ChEMBL document CHEMBL1156331, “7-Phenylplatensimycin and 11-methyl-7-phenylplatensimycin: more potent analogs of platensimycin” (2010)
≈ marks a conversion by molar mass, not a printed value.

How the values were obtained:
Format in all cases: functional
Enterococcus faecalis [1] = experiment: Antimicrobial activity against vancomycin-resistant Enterococcus faecalis isolate 13
Staphylococcus aureus [2] = experiment: Antimicrobial activity against methicillin-resistant Staphylococcus aureus isolate 5
Staphylococcus aureus [3] = experiment: Antimicrobial activity against methicillin-sensitive Staphylococcus aureus isolate 2
Staphylococcus aureus [4] = experiment: Antimicrobial activity against vancomycin-insensitive Staphylococcus aureus isolate 9
Staphylococcus aureus [5] = experiment: Antimicrobial activity against methicillin-resistant Staphylococcus aureus isolate 6
Enterococcus faecium [6] = experiment: Antimicrobial activity against vancomycin-resistant Enterococcus faecium isolate 15
Staphylococcus aureus [7] = experiment: Antimicrobial activity against methicillin-sensitive Staphylococcus aureus isolate 3
Staphylococcus aureus [8] = experiment: Antimicrobial activity against vancomycin-insensitive Staphylococcus aureus isolate 10
Staphylococcus aureus [9] = experiment: Antimicrobial activity against methicillin-sensitive Staphylococcus aureus isolate 1
Enterococcus faecalis [10] = experiment: Antimicrobial activity against vancomycin-resistant Enterococcus faecalis isolate 12
Staphylococcus aureus [11] = experiment: Antimicrobial activity against methicillin-sensitive Staphylococcus aureus isolate 4
Enterococcus faecium [12] = experiment: Antimicrobial activity against vancomycin-resistant Enterococcus faecium isolate 14
Staphylococcus aureus [13] = experiment: Antimicrobial activity against methicillin-resistant Staphylococcus aureus isolate 7
Enterococcus faecalis [14] = experiment: Antimicrobial activity against vancomycin-sensitive Enterococcus faecalis isolate 11
Staphylococcus aureus [15] = experiment: Antimicrobial activity against methicillin-resistant Staphylococcus aureus isolate 8

With `CC12CC34CC1CC(O2)C3C(C)(CCC(=O)Nc1c(O)ccc(C(=O)O)c1O)C(=O)C=C4c1ccccc1` (stereo not drawn) the MIC (Enterococcus faecalis [1]) was 16 µg/mL (≈ 30.9 µM), the MIC (Staphylococcus aureus [2]) was < 0.25 µg/mL and the MIC (Staphylococcus aureus [3]) was 0.5 µg/mL (≈ 0.966 µM). The MIC (Staphylococcus aureus [4]) was 1 µg/mL (≈ 1.93 µM), the MIC (Staphylococcus aureus [5]) was < 0.25 µg/mL and the MIC (Enterococcus faecium [6]) was ≤ 0.5 µg/mL. It also gave an MIC (Staphylococcus aureus [7]) of 2 µg/mL (≈ 3.86 µM), an MIC (Staphylococcus aureus [8]) of 1 µg/mL (≈ 1.93 µM) and an MIC (Staphylococcus aureus [9]) of 0.25 µg/mL (≈ 0.483 µM). The MIC (Enterococcus faecalis [10]) was 8 µg/mL (≈ 15.5 µM), the MIC (Staphylococcus aureus [11]) was < 0.25 µg/mL and the MIC (Enterococcus faecium [12]) was 2 µg/mL (≈ 3.86 µM). For the same molecule, the MIC (Staphylococcus aureus [13]) was < 0.25 µg/mL, the MIC (Enterococcus faecalis [14]) was ≤ 0.5 µg/mL and the MIC (Staphylococcus aureus [15]) was 0.5 µg/mL (≈ 0.966 µM).

`C[C@@H]1C2OC3(C)CC4(CC13)C(c1ccccc1)=CC(=O)C(C)(CCC(=O)Nc1c(O)ccc(C(=O)O)c1O)C24` (stereo partly drawn) was tested, and the MIC (Enterococcus faecalis [1]) was 8 µg/mL (≈ 15 µM), the MIC (Staphylococcus aureus [2]) was < 0.25 µg/mL and the MIC (Staphylococcus aureus [3]) was 0.5 µg/mL (≈ 0.941 µM). The MIC (Staphylococcus aureus [4]) was 1 µg/mL (≈ 1.88 µM), the MIC (Staphylococcus aureus [5]) was < 0.25 µg/mL and the MIC (Enterococcus faecium [6]) was ≤ 0.5 µg/mL. For the same molecule, the MIC (Staphylococcus aureus [7]) was 0.5 µg/mL (≈ 0.941 µM), the MIC (Staphylococcus aureus [8]) was 4 µg/mL (≈ 7.52 µM) and the MIC (Staphylococcus aureus [9]) was < 0.25 µg/mL. For the same molecule, the MIC (Enterococcus faecalis [10]) was 16 µg/mL (≈ 30.1 µM), the MIC (Staphylococcus aureus [11]) was < 0.25 µg/mL and the MIC (Enterococcus faecium [12]) was 2 µg/mL (≈ 3.76 µM). For the same molecule, the MIC (Staphylococcus aureus [13]) was < 0.25 µg/mL, the MIC (Enterococcus faecalis [14]) was 8 µg/mL (≈ 15 µM) and the MIC (Staphylococcus aureus [15]) was < 0.25 µg/mL.

With `C[C@@H]1C2OC3(C)CC4(C=CC(=O)C(C)(CCC(=O)Nc5c(O)ccc(C(=O)O)c5O)C24)CC13` (stereo partly drawn) the MIC (Enterococcus faecalis [1]) was 64 µg/mL (≈ 141 µM), the MIC (Staphylococcus aureus [2]) was 0.25 µg/mL (≈ 0.549 µM) and the MIC (Staphylococcus aureus [3]) was 1 µg/mL (≈ 2.2 µM). It also gave an MIC (Staphylococcus aureus [4]) of 2 µg/mL (≈ 4.39 µM), an MIC (Staphylococcus aureus [5]) of 0.5 µg/mL (≈ 1.1 µM) and an MIC (Enterococcus faecium [6]) of 1 µg/mL (≈ 2.2 µM). The MIC (Staphylococcus aureus [7]) was 8 µg/mL (≈ 17.6 µM), the MIC (Staphylococcus aureus [8]) was 8 µg/mL (≈ 17.6 µM) and the MIC (Staphylococcus aureus [9]) was 0.25 µg/mL (≈ 0.549 µM). The MIC (Enterococcus faecalis [10]) was 32 µg/mL (≈ 70.3 µM), the MIC (Staphylococcus aureus [11]) was < 0.25 µg/mL and the MIC (Enterococcus faecium [12]) was 2 µg/mL (≈ 4.39 µM). It also gave an MIC (Staphylococcus aureus [13]) of 0.5 µg/mL (≈ 1.1 µM), an MIC (Enterococcus faecalis [14]) of 1 µg/mL (≈ 2.2 µM) and an MIC (Staphylococcus aureus [15]) of 1 µg/mL (≈ 2.2 µM).

In the case of `CC12CC34C=CC(=O)C(C)(CCC(=O)Nc5c(O)ccc(C(=O)O)c5O)C3C(O1)[C@@H](Br)C2C4` (stereo partly drawn), the MIC (Enterococcus faecalis [1]) is reported as > 128 µg/mL, the MIC (Staphylococcus aureus [2]) is reported as 1 µg/mL (≈ 1.92 µM) and the MIC (Staphylococcus aureus [3]) is reported as 8 µg/mL (≈ 15.4 µM). The MIC (Staphylococcus aureus [4]) was 8 µg/mL (≈ 15.4 µM), the MIC (Staphylococcus aureus [5]) was 2 µg/mL (≈ 3.84 µM) and the MIC (Enterococcus faecium [6]) was 16 µg/mL (≈ 30.7 µM). It also gave an MIC (Staphylococcus aureus [7]) of 32 µg/mL (≈ 61.5 µM), an MIC (Staphylococcus aureus [8]) of 16 µg/mL (≈ 30.7 µM) and an MIC (Staphylococcus aureus [9]) of 1 µg/mL (≈ 1.92 µM). For the same molecule, the MIC (Enterococcus faecalis [10]) was 128 µg/mL (≈ 246 µM), the MIC (Staphylococcus aureus [11]) was 1 µg/mL (≈ 1.92 µM) and the MIC (Enterococcus faecium [12]) was 4 µg/mL (≈ 7.69 µM). The MIC (Staphylococcus aureus [13]) was 1 µg/mL (≈ 1.92 µM), the MIC (Enterococcus faecalis [14]) was 4 µg/mL (≈ 7.69 µM) and the MIC (Staphylococcus aureus [15]) was 4 µg/mL (≈ 7.69 µM).

Molecule `CC1=CC(=O)C(C)(CCC(=O)Nc2c(O)ccc(C(=O)O)c2O)C2C3CC4CC12CC4(C)O3` (stereo not drawn) has an MIC (Enterococcus faecalis [1]) of 16 µg/mL (≈ 35.1 µM), an MIC (Staphylococcus aureus [2]) of 1 µg/mL (≈ 2.2 µM) and an MIC (Staphylococcus aureus [3]) of 4 µg/mL (≈ 8.78 µM). The MIC (Staphylococcus aureus [4]) was 4 µg/mL (≈ 8.78 µM), the MIC (Staphylococcus aureus [5]) was 0.5 µg/mL (≈ 1.1 µM) and the MIC (Enterococcus faecium [6]) was ≤ 0.5 µg/mL. For the same molecule, the MIC (Staphylococcus aureus [7]) was 2 µg/mL (≈ 4.39 µM), the MIC (Staphylococcus aureus [8]) was 4 µg/mL (≈ 8.78 µM) and the MIC (Staphylococcus aureus [9]) was 0.5 µg/mL (≈ 1.1 µM). It also gave an MIC (Enterococcus faecalis [10]) of 8 µg/mL (≈ 17.6 µM), an MIC (Staphylococcus aureus [11]) of 0.5 µg/mL (≈ 1.1 µM) and an MIC (Enterococcus faecium [12]) of 2 µg/mL (≈ 4.39 µM). For the same molecule, the MIC (Staphylococcus aureus [13]) was 0.25 µg/mL (≈ 0.549 µM), the MIC (Enterococcus faecalis [14]) was ≤ 0.5 µg/mL and the MIC (Staphylococcus aureus [15]) was 2 µg/mL (≈ 4.39 µM).

For `CC1(CCC(=O)Nc2c(O)ccc(C(=O)O)c2O)C(=O)C=CC23CC4CC(OC4(c4ccccc4)C2)C31` (stereo not drawn), the MIC (Enterococcus faecalis [1]) was 16 µg/mL (≈ 31.8 µM), the MIC (Staphylococcus aureus [2]) was 1 µg/mL (≈ 1.99 µM) and the MIC (Staphylococcus aureus [3]) was 8 µg/mL (≈ 15.9 µM). For the same molecule, the MIC (Staphylococcus aureus [4]) was 16 µg/mL (≈ 31.8 µM), the MIC (Staphylococcus aureus [5]) was 2 µg/mL (≈ 3.97 µM) and the MIC (Enterococcus faecium [6]) was ≤ 0.5 µg/mL. The MIC (Staphylococcus aureus [7]) was 8 µg/mL (≈ 15.9 µM), the MIC (Staphylococcus aureus [8]) was 16 µg/mL (≈ 31.8 µM) and the MIC (Staphylococcus aureus [9]) was 2 µg/mL (≈ 3.97 µM). For the same molecule, the MIC (Enterococcus faecalis [10]) was 16 µg/mL (≈ 31.8 µM), the MIC (Staphylococcus aureus [11]) was 1 µg/mL (≈ 1.99 µM) and the MIC (Enterococcus faecium [12]) was 8 µg/mL (≈ 15.9 µM). The MIC (Staphylococcus aureus [13]) was 2 µg/mL (≈ 3.97 µM), the MIC (Enterococcus faecalis [14]) was ≤ 0.5 µg/mL and the MIC (Staphylococcus aureus [15]) was 4 µg/mL (≈ 7.94 µM).

For `CC12CC34C=CC(=O)C(C)(CCC(=O)Nc5c(O)ccc(C(=O)O)c5O)C3C(O1)[C@@H](Cl)C2C4` (stereo partly drawn), the MIC (Enterococcus faecalis [1]) was 64 µg/mL (≈ 134 µM), the MIC (Staphylococcus aureus [2]) was 0.25 µg/mL (≈ 0.525 µM) and the MIC (Staphylococcus aureus [3]) was 8 µg/mL (≈ 16.8 µM). The MIC (Staphylococcus aureus [4]) was 8 µg/mL (≈ 16.8 µM), the MIC (Staphylococcus aureus [5]) was 0.5 µg/mL (≈ 1.05 µM) and the MIC (Enterococcus faecium [6]) was 2 µg/mL (≈ 4.2 µM). For the same molecule, the MIC (Staphylococcus aureus [7]) was 8 µg/mL (≈ 16.8 µM), the MIC (Staphylococcus aureus [8]) was 8 µg/mL (≈ 16.8 µM) and the MIC (Staphylococcus aureus [9]) was 1 µg/mL (≈ 2.1 µM). For the same molecule, the MIC (Enterococcus faecalis [10]) was 64 µg/mL (≈ 134 µM), the MIC (Staphylococcus aureus [11]) was 0.5 µg/mL (≈ 1.05 µM) and the MIC (Enterococcus faecium [12]) was 8 µg/mL (≈ 16.8 µM). The MIC (Staphylococcus aureus [13]) was 0.25 µg/mL (≈ 0.525 µM), the MIC (Enterococcus faecalis [14]) was 2 µg/mL (≈ 4.2 µM) and the MIC (Staphylococcus aureus [15]) was 4 µg/mL (≈ 8.4 µM).

In the case of `Cc1onc(-c2ccccc2)c1C(=O)N[C@@H]1C(=O)N2[C@@H]1SC(C)(C)[C@@H]2C(=O)O` [OXACILLIN], the MIC (Staphylococcus aureus [2]) is reported as > 32 µg/mL, the MIC (Staphylococcus aureus [3]) is reported as < 0.25 µg/mL and the MIC (Staphylococcus aureus [4]) is reported as > 32 µg/mL. For the same molecule, the MIC (Staphylococcus aureus [5]) was > 32 µg/mL, the MIC (Staphylococcus aureus [7]) was < 0.25 µg/mL and the MIC (Staphylococcus aureus [8]) was > 32 µg/mL. The MIC (Staphylococcus aureus [9]) was < 0.25 µg/mL, the MIC (Staphylococcus aureus [11]) was < 0.25 µg/mL and the MIC (Staphylococcus aureus [13]) was > 32 µg/mL. The MIC (Staphylococcus aureus [15]) was > 32 µg/mL.

`CC12C[C@@]34C=CC(=O)[C@@](C)(CCC(=O)Nc5c(O)ccc(C(=O)O)c5O)C3[C@H](CC1C4)O2` (stereo partly drawn) [PLATENSIMYCIN] was tested, and the MIC (Enterococcus faecalis [1]) was 8 µg/mL (≈ 18.1 µM), the MIC (Staphylococcus aureus [2]) was 0.25 µg/mL (≈ 0.566 µM) and the MIC (Staphylococcus aureus [3]) was 2 µg/mL (≈ 4.53 µM). For the same molecule, the MIC (Staphylococcus aureus [4]) was 2 µg/mL (≈ 4.53 µM), the MIC (Staphylococcus aureus [5]) was 0.25 µg/mL (≈ 0.566 µM) and the MIC (Enterococcus faecium [6]) was ≤ 0.5 µg/mL. It also gave an MIC (Staphylococcus aureus [7]) of 8 µg/mL (≈ 18.1 µM), an MIC (Staphylococcus aureus [8]) of 2 µg/mL (≈ 4.53 µM) and an MIC (Staphylococcus aureus [9]) of 1 µg/mL (≈ 2.27 µM). For the same molecule, the MIC (Enterococcus faecalis [10]) was 8 µg/mL (≈ 18.1 µM), the MIC (Staphylococcus aureus [11]) was < 0.25 µg/mL and the MIC (Enterococcus faecium [12]) was ≤ 0.5 µg/mL. For the same molecule, the MIC (Staphylococcus aureus [13]) was 0.25 µg/mL (≈ 0.566 µM), the MIC (Enterococcus faecalis [14]) was ≤ 0.5 µg/mL and the MIC (Staphylococcus aureus [15]) was 1 µg/mL (≈ 2.27 µM).

With `CN[C@H](CC(C)C)C(=O)N[C@H]1C(=O)N[C@@H](CC(N)=O)C(=O)N[C@H]2C(=O)N[C@H]3C(=O)N[C@H](C(=O)N[C@H](C(=O)O)c4cc(O)cc(O)c4-c4cc3ccc4O)[C@H](O)c3ccc(c(Cl)c3)Oc3cc2cc(c3O[C@@H]2O[C@H](CO)[C@@H](O)[C@H](O)[C@H]2O[C@H]2C[C@](C)(N)[C@H](O)[C@H](C)O2)Oc2ccc(cc2Cl)[C@H]1O` [VANCOMYCIN] the MIC (Enterococcus faecium [6]) was > 128 µg/mL, the MIC (Enterococcus faecium [12]) was > 128 µg/mL and the MIC (Enterococcus faecalis [14]) was 2 µg/mL (≈ 1.38 µM).
